Laboratory results taken from US20210386792A1, “A METHOD FOR INCREASING POPULATION OF SPERMATOGONIAL STEM CELLS” (priority 2018, published 2021).

Key:
DS-iPS EC = experiment: GDNF ELISA in conditioned media from Down syndrome iPS-derived ECs; assay type: cell-based, human; details: 2 ng/ml FGF-2
Method: (§1) Testis, lung, or liver ECs were plated (10,000 cells ml^−1) on 12 well dishes coated with 0.1% gelatin and cultured for 24 hours. Conditioned media was harvested at 24 and 48 hours after FGF-2 (2 ng ml^−1, 20 ng ml^−1 and 50 ng ml^−1) treatment and analyzed by ELISA for GDNF (Promega GDNF Emax immunoassay system, #G7621) following the manufacturer's instruction. Statistics was analyzed using Graph Pad Prism. For quantification of Gdnf mRNA, total RNA was isolated from the cells using Direct-zol RNA MiniPrep (Zymo Research) and reverse transcribed using High Capacity cDNA Reverse Transcription Kit (Appliedbiosystems), according to the manufacturer's instructions. All gene expression levels were normalized to GAPDH mRNA levels.
(§2) To generate iPSC lines, either human fibroblasts/stromal cells were transduced with pMXs-based retroviral supernatant with human OCT4, SOX2, KLF4, or MYC as described^30, or mononuclear cells were infected with pHage2-CMV-RTTA-W and pHage-Tet-hSTEMMCA-loxP virus as described^31. All cells were culture on 0.1% gelatin-coated dishes in human endothelial cell medium (Lonza; EGM®-MV Bulletkit) with 50 ng ml^−1 additional VEGF. 500,000 disaggregated single embryonic bodies from human iPSCs were cultured for 48 hours. Non-adherent cells were gently removed and adherent cells were cultured for 1-2 passages. […]

C-iPS EC = experiment: GDNF ELISA in conditioned media from control iPS-derived ECs; assay type: cell-based, human; details: 2 ng/ml FGF-2
Method: as §1, §2

EGR-1 = experiment: Western blot of EGR-1 expression in TECs; assay type: cell-based, mouse; details: TEC
Excerpt: FIG. 5. GDNF expression in TECs is regulated by CaN-NFAT signaling. a. Immunouorescence images of testis sections immunostained with the stem cell markers DDX4 and Oct4 and DAPI to stain DNA. Testes were harvested from 1-week-old or 4-week-old Euploid or Ts65Dn mice. Quantication of DDX4+ and Oct4+ cells relative to DAPI per high-powered eld (HPF) is shown on the right, ***P<0.0001. Bar=50 μm. Two-way ANOVA test. b. […] Values are mean±s.e.m. n=4. c. Quantication of GDNF levels by ELISA in conditioned media from murine TECs, LuEC and LiEC after 2 ngml-1 FGF-2 treatment in the presence or absence of CsA. Values are mean±s.e.m., n=4. d. H&E-stained cross-sections from testes of age-matched Euploid, Ts65Dn or Ts65Dn mice 5 weeks after implantation with GFP+ TECs isolated from syngeneic wild-type mice (Ts65Dn+GFP+ TECs). Red dotted line encircles mature sperm (yellow arrow) in the lumen of the seminiferous tubules. Immunouorescence images with GFP and DAPI to stain DNA of testis sections from Ts65Dn+GFP+TECs mice. e. Western blot analysis of EGR-1 protein expression in TECs and LuECs untreated or after FGF-2 treatment, expression of constitutively active NFATc1 (caNFATc1) or an empty vector control. Actin was probed as a loading control. f. Quantication of nuclear translocation of EGR1 and NFATc1 in TECs after treatment with conditioned media (CM), 2 ng ml-1 FGF-2±CsA. Values are mean±s.e.m. g. […]

Thy1.2+GFP+ SSCs = experiment: Colony formation of GFP+ SSCs co-cultured with TECs with added growth factors; assay type: cell-based, mouse; details: Thy1.2+GFP+ cells co-cultured with TECs, factors added to growth media
Method: 2D co-cultures were generated by plating 2.7×10^5 cultured GFP^+ SSCs on STO feeder cells 28 or on top of 200 μl of solid matrigel mixture containing TEC (BD bioscience) in serum free medium 28 with exogenous GDNF 10 ng ml^−1 (R&D system), GFR^+ 75 ng ml^−1 (R&D system) and FGF2 1 ng ml^−1 (BD Biosciences). Average GFP^+ SSC colony area was measured and GFP^+ SSC cell number were counted 8 days after plating. Each condition was performed in triplicate.
FIG. 4. a. Quantication of GDNF levels by ELISA in conditioned media from TECs isolated from Fgfr1+/+ or Fgfr1−/− mice. Bar=1 cm. b. Images of testes from busulfan-treated (45 mgkg-1) WT mice 12 weeks post transplantation with PBS(Φ), Fgfr1+/+ TECs or Fgfr1/−/− TECs. Testis weights are indicated on the right (n=4). c. H&E images of testis sections from control (Fgfr1+/+) or endothelialspecic deletion of Fgfr1 (Fgfr1iΔEC/iΔEC) mice at 12 weeks after tamoxifen treatment to induce fgfr1 deletion from ECs. Red stars indicate empty seminiferous tubule. Bar=100 μm. d. Representative bright-eld and GFP images of GFP+ SSCs co-cultured with TECs with the addition of FGF±GDNF at the indicated concentrations after 4 weeks. SSC colony number and size over time are shown on right. e. Immunouorescence images of testis sections from Fgfr1+/+ or Fgfr1iΔEC/iΔEC mice 5 weeks after busulfan treatment at the indicated concentrations. […]

fibroblast growth factor-2 [FGF-2]
GDNF production after FGF2 treatment (DS-iPS EC): relatively modest induction of GDNF | GDNF production after FGF2 treatment (C-iPS EC): stimulated robust GDNF production | EGR-1 expression after FGF-2 treatment (EGR-1): increased EGR-1 expression | SSC colony formation (number and size of colonies) (Thy1.2+GFP+ SSCs): sufficient for SSC maintenance and expansion
